Measurements taken from publication PMC6693643 (ACS chemical biology, 2017).

Tests used:
MtuATP-PRT [1] = target: T1, MtuATP-PRT (Mycobacterium tuberculosis, UniProt P9WMN1)
MtuATP-PRT [2] = target: T1, MtuATP-PRT; experiment: competitive kinetic isotope effects, scintillation counting; assay type: biochemical; details: reverse reaction; co-substrate PRATP; alternative to pyrophosphate

T1 sequence (P9WMN1 whole entry): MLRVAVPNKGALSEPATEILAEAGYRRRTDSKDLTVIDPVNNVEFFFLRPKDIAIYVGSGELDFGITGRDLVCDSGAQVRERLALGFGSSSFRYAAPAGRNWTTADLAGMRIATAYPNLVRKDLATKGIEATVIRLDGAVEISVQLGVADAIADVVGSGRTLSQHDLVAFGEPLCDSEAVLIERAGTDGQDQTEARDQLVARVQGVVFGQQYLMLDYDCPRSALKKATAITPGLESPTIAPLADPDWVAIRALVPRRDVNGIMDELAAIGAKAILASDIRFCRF

Structure (SMILES) | X-ray crystal structure (co-crystallisation) (MtuATP-PRT [1]) | competitive kinetic isotope effects, scintillation counting (MtuATP-PRT [2])
Nc1ncnc2c1ncn2[C@@H]1O[C@H](COP(=O)(O)OP(=O)(O)OP(=O)(O)O)[C@@H](O)[C@H]1O [ATP] | a structure with ATP bound to MtuATP-PRT (PDB: 5U99) was obtained | 
O=C(O)CP(=O)(O)O [phosphonoacetic acid] |  | the ATP-PRT catalyzed reaction was studied using phosphonoacetic acid (PA) as an alternative
